From US5079252A, “Therapeutic compounds” (priority 1988, dated 1992)
pIC50: −log10 of the molar value. Where two headings read alike, the source gives them in different places.

How the values were obtained:
[1] = tested on: Herpes Simplex Virus (HSV 1); experiment: HSV 1 plaque reduction assay in Vero cell monolayers; format: cell-based; settings: read-out: 50% inhibitory concentration (IC50)
Method: Herpes Simplex Virus (HSV 1) was assayed in monolayers of Vero cells in multiwell trays. Activity of compounds was determined in the plaque reduction assay, in which a cell monolayer was infected with a suspension of HSV 1, and then overlaid with nutrient agarose in the form of a gel to ensure that there was no spread of virus throughout the culture. A range of concentrations of compound of known molarity was incorporated in the nutrient agarose overlay. Plaque numbers at each concentration are expressed as percentages of the control and a dose-response curve was drawn. From this curve the 50% inhibitory concentration (IC50) was estimated.

[2] = cited from earlier work
[3] = background statement; cited from earlier work
herpes viruses = settings: cited from earlier work
[4] = Plasma levels of acyclovir after oral administration in animals; format: in vivo
[5] = Oral bioavailability in rats: urinary recovery as acyclovir after oral administration (gavage); format: in vivo, Long Evans Rates (rats)
Method: Long Evans Rates are administered the compound to be tested by gavage at a dose equivalent to 25 mg/kg acyclovir. The urine is collected for 24 and 48 hours post-dose, ultrafiltered, and analysed by reverse-phase high-pressure liquid chromatography. The oral bioavailability of the compound is expressed as the percent of the dose excreted in the urine as acyclovir.

pIC50 ([1]; HSV 1, Vero cells, plaque reduction)	bioavailability compared with acyclovir or the esters disclosed in UK 1523865 and 1561380 ([5]; oral)	Urinary Recovery (% of dose) as acyclovir ([5]; rats, gavage, dose equivalent to 25 mg/kg acyclovir, urine 24 and 48 hours post-dose)	SMILES	pIC50 ([1]; Vero)	solubility in water [2]	absorption from the gastrointestinal tract after oral administration [3]	antiviral activity, particularly against herpes viruses (herpes viruses)	levels of acyclovir in the plasma [4]
–	–	–	Nc1nc2c(ncn2COCCO)c(=O)[nH]1 [Acyclovir, 9-(2-Hydroxyethoxymethyl)guanine]	~7.00	poorly soluble	only poorly absorbed	potent antiviral activity	–
6.70	improved bioavailability	34 % of dose	CCCCC(=O)OCCOCn1cnc2c(=O)[nH]c(N)nc21 [Example A, 9-(2-valeryloxyethoxymethyl)guanine]	–	–	–	–	measurable levels of acyclovir in the plasma
